Measured values reported in paper PMC6692352, “DF2726A, a new IL-8 signalling inhibitor, is able to counteract chemotherapy-induced neuropathic pain” (Scientific Reports, 2019).

Columns and labels:
Metabolic stability, rat = format: in vitro ADME; settings: Test conc: 2.5 µM
Excerpt: (§1) Table 1 Physicochemical and in Vitro ADME Properties of DF2726A. | column: DF2726A

CYP 1A2 [1] = target: CYP 1A2 (Homo sapiens, UniProt P05177); format: in vitro ADME
Excerpt: as §1

CYP 1A2 [2] = format: in vitro ADME
Excerpt: as §1

[3] = Pharmacokinetics in the rat, intravenous and oral; format: in vivo, Sprague Dawley rats
Description: Pharmacokinetics studies in the rat
DF2726A was administered to male Sprague Dawley rats (Charles River Srl. Calco Italy, 6-8 weeks old, n = 4/groups) intravenously (5 mg/kg, Dulbecco’s phosphate buffered saline) and orally (5 mg/kg Dulbecco’s phosphate buffered saline).
On day of treatment, an exact amount of DF2726A was dissolved in the appropriate volume of vehicle to obtain a final concentration of 2.0 mg/mL (IV) and 1 mg/mL (OS). Both of the formulations were filtered at 0.45 μm filter before use in animals.
After the administration of DF2726A, a 0.15-0.20 mL of blood was collected via jugular vein catheters with zero-dead volume disposable syringes (1 mL iv Insulin syringes with attached 25G […]
5/8 inch needles; Chemil s.r.l., Padova, Italy) at 0.08, 0.5, 1, 3, 6, 12, 24, 36 and 48 h for i.v. dosing and at 0.25, 0.5, 1, 3, 6, 12, 24, 36 and 48 h for oral dosing. After each blood withdrawal, the catheters were washed with 0.15-0.2 mL of sterile physiological saline and filled with 0.03 mL of heparin saline solution (0.25 U.I/mL). The heparinized blood was immediately centrifuged (8000 RPM for 5 min at approximately 4°C) and the resultant plasma transferred into vials and stored at - 20°C until analysis. DF2726A concentrations were quantified by HLPC-MS/MS using a chromatographic method with a lower limit of quantitation of 1 ng·mL -1. Non-compartmental analysis (Gibaldi and Perrier, 1982) were used to calculate the pharmacokinetic parameters using a MKModel by Nick Holford software Version 4, (Biosoft, Ferguson, MO 63 135, USA). […]

GFAP = test: Western blot of DRG of oxaliplatin rats, astrocyte marker GFAP; format: in vivo, male Wistar rats; settings: 30 mg/kg os; p < 0.01 vs OXA rats
Description: Animals were sacrificed and dorsal root ganglia (DRG) (L4-L6) were removed and stored at […]. They were homogenized on ice-cold lysis buffer [20 mM Tris–HCl (pH 7.5), 10 mM NaF, 150 mM NaCl, 1% Nonidet P-40, 1 mM phenylmethylsulfonyl fluoride, 1 mM Na3VO4, leupeptin and trypsin inhibitor 10 μg/mL; 20 µl/sample, as previously described.
After 1 h, tissue lysates were obtained by centrifugation at 20,000 g for 15 min at 4 °C. Protein concentrations were estimated by the Bio-Rad protein assay using bovine serum albumin as standard.
DRG lysate proteins (30 μg) were dissolved in Laemmli sample buffer, boiled for 5 min, and separated on SDS-polyacrylamide gel elctrophoresis and transferred onto nitrocellulose membrane (240 mA for 40 min at room temperature). […] The protein bands were scanned and densitometrically analyzed with a model GS-700 imaging densitometer (Bio-Rad Laboratories, Milan, Italy). […]

COX2 = COX2 protein western blotting in F11-derived neurons; format: cell-based; settings: DF2726A 1 µM + oxaliplatin 20 µM, 24 h
Description: Following neuronal differentiation, neurons were treated for 24 h with DF2726A (1 μM final concentration), oxaliplatin (Sigma-Aldrich; 20 µM final concentration), or the combination of the two molecules.
Control and treated cells were collected and lysed in ice-cold RIPA buffer (PBS pH 7.4 containing 0.5% sodium deoxycolate, 1% Igepal, 0.1% SDS, 5 mM EDTA, 1% protease and phosphatase inhibitor cocktails; Sigma-Aldrich) as described in[22],[33]. Protein lysates (30 μg) were separated on 8–12% SDS-polyacrilamide gel and electroblotted onto polyvinyldifluoride membrane (PVDF; Sigma-Aldrich). Nonspecific binding sites were blocked by 5% non-fat dry milk (Bio-Rad Laboratories, Hercules, CA, USA) in Tris buffered saline (TBS: 20 mM Tris- HCl, pH 7.4, containing 150 mM NaCl) for 30 min at RT. […] The relative densities of immunoreactive bands were determined and normalized HRP-conjugated β-actin, using ImageJ software. […]

F11 cells = test: Cell viability assay in F11 neuronal cells; settings: 24 h, 5–20 µM
Description: For the subsequent experiments, DF2726A was used at a final concentration of 1 µM, and oxaliplatin at a final concentration of 20 µM. For comparison, paclitaxel alone or in combination with DF2726A was also used.
F11 hybridoma cells (ECACC 08062601), chosen as a model of DRG neurons[22],[32],[33] were cultivated in DMEM (Euroclone, Milan, Italy) supplemented with 10% FBS (Sigma-Aldrich, St. Louis, MO, USA), 1% penicillin/streptomycin (Euroclone, MI, Italy) and 1% glutamine (Euroclone) at 37 °C, in humidified 95% air with 5% CO2 atmosphere. For all the experiments, cells were used at 18th passage.
Supplementary Fig. 2: Effect of DF2726A, oxaliplatin and paclitaxel treatment on neuronal cell
viability. Cell viability assay of F11 cells after treatment at different concentrations of DF 2726A
(DF; 1-20 µM), oxaliplatin (OXA, 5-60 µM), paclitaxel (PAC, 5-20 nM) and the combination of 20
µM oxaliplatin+DF2726A (Oxa+DF) and paclitaxel+DF2726A (PAC+DF) at 24 h. Data are means

[4] = single 5 mg/kg intravenous dose

CYP 1A2 (Homo sapiens, UniProt P05177), sequence (P05177 whole entry): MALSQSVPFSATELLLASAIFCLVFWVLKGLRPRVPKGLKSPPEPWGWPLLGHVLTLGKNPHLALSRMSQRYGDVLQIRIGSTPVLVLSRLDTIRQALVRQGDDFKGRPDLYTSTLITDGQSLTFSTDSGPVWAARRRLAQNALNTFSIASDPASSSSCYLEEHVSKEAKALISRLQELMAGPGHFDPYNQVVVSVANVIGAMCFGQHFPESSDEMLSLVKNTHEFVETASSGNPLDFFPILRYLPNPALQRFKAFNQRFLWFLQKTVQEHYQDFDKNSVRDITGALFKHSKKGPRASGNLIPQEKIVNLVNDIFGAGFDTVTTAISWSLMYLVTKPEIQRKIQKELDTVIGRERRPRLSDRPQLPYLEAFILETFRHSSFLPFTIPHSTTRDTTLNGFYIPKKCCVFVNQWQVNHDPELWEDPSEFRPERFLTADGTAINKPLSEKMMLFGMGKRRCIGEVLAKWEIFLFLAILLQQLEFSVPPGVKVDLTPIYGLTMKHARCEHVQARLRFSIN

CC(C)(C(=O)O)c1ccc(Nc2nc(C(F)(F)F)cs2)cc1 [DF2726A]
Metabolic stability rat (Metabolic stability, rat): 15.3 µL/min/10^6 cells | IC50 (CYP 1A2 [1]): > 30 µM | IC50 (CYP 1A2 [2]): > 100 µM | AUC0-last Oral ([3]; 5 mg/kg oral dose): 136.3 ± 22.6 µg·h/mL | Cmax Oral ([3]; 5 mg/kg oral dose): 6.86 ± 1.6 µg/mL | t1/2 Oral ([3]; 5 mg/kg oral dose): 16.2 ± 3.3 h | tmax Oral ([3]; 5 mg/kg oral dose): 6.0 h | F (oral bioavailability) ([3]; 5 mg/kg oral vs 5 mg/kg intravenous): 96.8% | AUC0-last Intravenous [3, 4]: 140.8 ± 24.9 µg·h/mL | CLtotal Intravenous [3, 4]: 0.62 ± 0.11 mL/min/kg | Vd Intravenous [3, 4]: 0.52 ± 0.09 L/kg | t1/2 Intravenous [3, 4]: 15.2 ± 3.8 h | GFAP expression in DRG of oxaliplatin rats (GFAP): significantly reduced the expression | COX2 expression levels, oxaliplatin-treated neurons (COX2): comparable to the control | Neuronal cell viability (F11 cells): ineffective in modulating neuronal cell viability
